Results taken from patent US20040037804A1, “Methods for treatment of asthma” (priority 2002, published 2004).

Test system: airway smooth muscle (ASM) tissues
Experiment: Isometric constrictor responsiveness to acetylcholine in isolated rabbit tracheal ASM rings (organ bath)
Type: cell-based
Conditions: control (not cytokine-exposed) ASM, DEX 1 μM, 24 hours
Description: Following general anesthesia with xylazine (10 mg/kg) and ketamine 50 mg/kg), NZW rabbits were sacrificed by air embolism and the tracheae were removed, cleaned of loose connective tissue and epithelium, and divided into ring segments.
Following incubation, the ASM tissue segments were placed in organ baths containing modified Krebs Ringer solution, and aerated with 5% CO2 in oxygen at 37° C. The tissues' isometric cholinergic contractility was subsequently assessed by cumulative administration of acetylcholine (ACh; 10^−10 to 10^−3 M).

`C[C@@H]1C[C@H]2[C@@H]3CCC4=CC(=O)C=C[C@]4(C)[C@@]3(F)[C@@H](O)C[C@]2(C)[C@@]1(O)C(=O)CO` [DEX, dexamethasone] was tested, and the “effect on constrictor responses to ACh in control ASM” value was “no effect”.
